The test system of assay [1] is HCV replicons (Huh-7 luc/neo cells, NS3-NS5B regions of HCV type 1b). Nature of the assay: Replicon assay: inhibition of HCV RNA replication in Huh-Luc cells (luciferase read-out). The conditions noted are these: Hepatitis C virus, Huh-7, 72 h, HCV type 1b replicon, luciferase activity after three days. The assay is classed as cell-based. The protocol: The in vitro antiviral activity against HCV of the compounds of formula (I) was tested in a cellular HCV replicon system based on Lohmann et al. (1999) Science 285:110-113, with the further modifications described by Krieger et al. (2001) Journal of Virology 75: 4614-4624 (incorporated herein by reference), which is further exemplified in the examples section. This model, while not a complete infection model for HCV, is widely accepted as the most robust and efficient model of autonomous HCV RNA replication currently available. […] It will be appreciated that it is important to distinguish between compounds that specifically interfere with HCV functions from those that exert cytotoxic or cytostatic effects in the HCV replicon model, and as a consequence cause a decrease in HCV RNA or linked reporter enzyme concentration. Assays are known in the field for the evaluation of cellular cytotoxicity based for example on the activity of mitochondrial enzymes using fluorogenic redox dyes such as resazurin. Furthermore, cellular counter screens exist for the evaluation of non-selective inhibition of linked reporter gene activity, such as firefly luciferase. Appropriate cell types can be equipped by stable transfection with a luciferase reporter gene whose expression is dependent on a constitutively active gene promoter, and such cells can be used as a counter-screen to eliminate non-selective inhibitors.
The compounds of formula (I) were examined for activity in the inhibition of HCV RNA replication in a cellular assay. […] The cellular assay was based on a bicistronic expression construct, as described by Lohmann et al. (1999) Science vol. 285 pp. 110-113 with modifications described by Krieger et al. (2001) Journal of Virology 75: 4614-4624, in a multi-target screening strategy. In essence, the method was as follows.
The assay utilized the stably transfected cell line Huh-7 luc/neo (hereafter referred to as Huh-Luc). This cell line harbors an RNA encoding a bicistronic expression construct comprising the wild type NS3-NS5B regions of HCV type 1b translated from an Internal Ribosome Entry Site (IRES) from encephalomyocarditis virus (EMCV), preceded by a reporter portion (FfL-luciferase), and a selectable marker portion (neo^R, neomycine phosphotransferase). The construct is bordered by 5′ and 3′ NTRs (non-translated regions) from HCV type 1b. Continued culture of the replicon cells in the presence of G418 (neo^R) is dependent on the replication of the HCV RNA. The stably transfected replicon cells that express HCV RNA, which replicates autonomously and to high levels, encoding inter alia luciferase, are used for screening the antiviral compounds.
The replicon cells were plated in 384 well plates in the presence of the test and control compounds which were added in various concentrations. Following an incubation of three days, HCV replication was measured by assaying luciferase activity (using standard luciferase assay substrates and reagents and a Perkin Elmer ViewLux™ ultraHTS microplate imager). Replicon cells in the control cultures have high luciferase expression in the absence of any inhibitor. The inhibitory activity of the compound on luciferase activity was monitored on the Huh-Luc cells, enabling a dose-response curve for each test compound. EC50 values were then calculated, which value represents the amount of the compound required to decrease by 50% the level of detected luciferase activity, or more specifically, the ability of the genetically linked HCV replicon RNA to replicate.

Assay [2] concerns the target full-length hepatitis C NS3 protease enzyme (HCV NS3/4A protease complexes) (Hepatitis C virus genotype 1a, UniProt P27958). Nature of the assay: Inhibition assay (enzymatic assay) of HCV NS3/4A protease. It is filed as biochemical. The conditions noted are these: enzyme 1 nM, 25 μM NS4A cofactor, 0.5 μM depsipeptide substrate, 30° C., competitive model. On the procedure:
The aim of this in vitro assay is to measure the inhibition of HCV NS3/4A protease complexes by the compounds of the present invention. This assay provides an indication of how effective compounds of the present invention would be in inhibiting HCV NS3/4A proteolytic activity.
The inhibition of full-length hepatitis C NS3 protease enzyme was measured essentially as described in Poliakov, 2002 Prot Expression & Purification 25 363 371. Briefly, the hydrolysis of a depsipeptide substrate, Ac-DED(Edans)EEAbuψ[COO]ASK(Dabcyl)-NH2 (AnaSpec, San José, USA), was measured spectrofluorometrically in the presence of a peptide cofactor, KKGSVVIVGRIVLSGK (Åke Engström, Department of Medical Biochemistry and Microbiology, Uppsala University, Sweden). [Landro, 1997 #Biochem 36 9340-9348]. The enzyme (1 nM) was incubated in 50 mM HEPES, pH 7.5, 10 mM DTT, 40% glycerol, 0.1% n-octyl-D-glucoside, with 25 μM NS4A cofactor and inhibitor at 30° C. for 10 min, whereupon the reaction was initiated by addition of 0.5 μM substrate. Inhibitors were dissolved in DMSO, sonicated for 30 sec. and vortexed. The solutions were stored at −20° C. between measurements.
The final concentration of DMSO in the assay sample was adjusted to 3.3%. The rate of hydrolysis was corrected for inner filter effects according to published procedures. [Liu, 1999 Analytical Biochemistry 267 331-335]. Ki values were estimated by non-linear regression analysis (GraFit, Erithacus Software, Staines, MX, UK), using a model for competitive inhibition and a fixed value for Km (0.15 μM). A minimum of two replicates was performed for all measurements.

Each structure is given as a SMILES string.

Chain of full-length hepatitis C NS3 protease enzyme (HCV NS3/4A protease complexes) (P27958 1027-1657, one chain of several): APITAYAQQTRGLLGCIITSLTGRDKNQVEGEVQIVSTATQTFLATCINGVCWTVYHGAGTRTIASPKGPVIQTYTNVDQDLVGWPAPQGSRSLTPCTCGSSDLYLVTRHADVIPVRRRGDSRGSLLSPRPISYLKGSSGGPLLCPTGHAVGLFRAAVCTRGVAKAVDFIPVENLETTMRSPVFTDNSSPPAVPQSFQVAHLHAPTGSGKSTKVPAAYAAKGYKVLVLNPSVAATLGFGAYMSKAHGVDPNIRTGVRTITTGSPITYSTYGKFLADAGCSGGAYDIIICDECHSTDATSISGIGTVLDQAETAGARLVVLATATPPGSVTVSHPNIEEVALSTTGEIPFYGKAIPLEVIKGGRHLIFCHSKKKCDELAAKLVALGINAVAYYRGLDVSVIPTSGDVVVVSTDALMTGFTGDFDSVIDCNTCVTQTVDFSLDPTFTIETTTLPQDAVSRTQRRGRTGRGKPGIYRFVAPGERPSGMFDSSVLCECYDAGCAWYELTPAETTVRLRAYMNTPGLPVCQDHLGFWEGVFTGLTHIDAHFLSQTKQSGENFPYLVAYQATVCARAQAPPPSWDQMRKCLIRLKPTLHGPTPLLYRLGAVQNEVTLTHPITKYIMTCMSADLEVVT

Consider `COc1ccc2c(O[C@@H]3C[C@H]4C(=O)N[C@]5(C(=O)NS(=O)(=O)C6CC6)C[C@H]5/C=C\CCCCCNC(=O)N4C3)nc(-c3ccc(F)cc3)nc2c1C` [Compound 104, Cyclopropanesulfonic acid {18-[2-(4-fluoro-phenyl)-7-methoxy-8-methyl-quinazolin-4-yloxy]-2,15-dioxo-3,14,16-triaza-tricyclo[14.3.0.0*4,6*]nonadec-7-ene-4-carbonyl}-amide], for which, in assay [1], the EC50 is 0.5 to 199 nM. For the same compound, the Ki in assay [2] lay in the range of 0.1 to 4.9 nM.
The corresponding values for `COc1cc2nc(-c3ccccc3)nc(O[C@@H]3C[C@H]4C(=O)N[C@]5(C(=O)NS(=O)(=O)C6CC6)C[C@H]5/C=C\CCCCN(C)C(=O)[C@@H]4C3)c2cc1C` [Compound 114] are 0.5 to 199 nM and 0.1 to 4.9 nM.
The corresponding values for `COc1ccc2c(O[C@@H]3C[C@H]4C(=O)N[C@]5(C(=O)NS(=O)(=O)C6CC6)C[C@H]5/C=C\CCCCN(C)C(=O)N4C3)nc(-c3cccc(C)n3)nc2c1C` [Compound 119, Cyclopropanesulfonic acid {17-[7-methoxy-8-methyl-2-(6-methyl-pyridin-2-yl)-quinazolin-4-yloxy]-13-methyl-2,14-dioxo-3,13,15-triazatricyclo[13.3.0.0*4,6*]octadec-7-ene-4-carbonyl}-amide] are 0.5 to 199 nM and 0.1 to 4.9 nM.
With `COc1cc2nc(-c3ccccc3)nc(O[C@@H]3C[C@H]4C(=O)N[C@]5(C(=O)NS(=O)(=O)C6CC6)C[C@H]5/C=C\CCCCN(C)C(=O)N4C3)c2cc1C` [Compound 121, Cyclopropanesulfonic acid [17-(7-methoxy-6-methyl-2-phenyl-quinazolin-4-yloxy)-13-methyl-2,14-dioxo-3,13,15-triaza-tricyclo[13.3.0.0*4,6*]octadec-7-ene-4-carbonyl]-amide], the EC50 in assay [1] is 0.5 to 199 nM. For the same compound, the Ki in assay [2] is 0.1 to 4.9 nM.
On the same counts, the results for `COc1ccc(-c2nc(O[C@@H]3C[C@H]4C(=O)N[C@]5(C(=O)NS(=O)(=O)C6CC6)C[C@H]5/C=C\CCCCN(C)C(=O)N4C3)c3ccc(OC)c(C)c3n2)cc1` [Compound 131, Cyclopropanesulfonic acid {17-[7-methoxy-2-(4-methoxy-phenyl)-8-methyl-quinazolin-4-yloxy]-13-methyl-2,14-dioxo-3,13,15-triaza-tricyclo[13.3.0.0*4,6*]-octadec-7-ene-4-carbonyl}-amide] are 0.5 to 199 nM and 0.1 to 4.9 nM.
For the compound `COc1ccc(-c2nc(O[C@@H]3C[C@H]4C(=O)N[C@]5(C(=O)NS(=O)(=O)C6(C)CC6)C[C@H]5/C=C\CCCCN(C)C(=O)N4C3)c3ccc(OC)c(C)c3n2)cc1` [Compound 132, 1-Methyl-cyclopropanesulfonic acid {17-[7-methoxy-2-(4-methoxy-phenyl)-8-methyl-quinazolin-4-yloxy]-13-methyl-2,14-dioxo-3,13,15-triaza-tricyclo[13.3.0.0*4,6*]octadec-7-ene-4-carbonyl}-amide], in assay [1], the EC50 fell in the range of 0.5 to 199 nM. The same compound returned a Ki in assay [2] of 0.1 to 4.9 nM.
The corresponding values for `COc1ccc(-c2nc(O[C@@H]3C[C@H]4C(=O)N[C@]5(C(=O)NS(=O)(=O)C6CC6)C[C@H]5/C=C\CCCCN(C)C(=O)[C@@H]4C3)c3ccc(OC)c(C)c3n2)cc1` [Compound 138, Cyclopropanesulfonic acid {17-[7-methoxy-2-(4-methoxy-phenyl)-8-methyl-quinazolin-4-yloxy]-13-methyl-2,14-dioxo-3,13-diaza-tricyclo[13.3.0.0*4,6*]octadec-7-ene-4-carbonyl}-amide] are 0.5 to 199 nM and 0.1 to 4.9 nM.
As for `COc1ccc2c(O[C@@H]3C[C@H]4C(=O)N[C@]5(C(=O)NS(=O)(=O)C6CC6)C[C@H]5/C=C\CCCCN(C)C(=O)[C@@H]4C3)nc(-n3ccc(C(C)C)n3)nc2c1C` [Compound 147, N-[17-[2-(3-isopropylpyrazol-1-yl)-7-methoxy-8-methylquinazolin-4-yloxy]-13-methyl-2,14-dioxo-3,13-diazatricyclo[13.3.0.0^4,6]octadec-7-ene-4-carbonyl](cyclo-propyl)sulfonamide], in assay [1], the EC50 lay within 0.5 to 199 nM. Besides, the Ki in assay [2] lay in the range of 0.1 to 4.9 nM.
For `CCOc1nc(O[C@@H]2C[C@H]3C(=O)N[C@]4(C(=O)NS(=O)(=O)C5CC5)C[C@H]4/C=C\CCCCN(C)C(=O)[C@@H]3C2)c2ccc(OC)c(C)c2n1` [Compound 150, N-[17-[2-Ethoxy-7-methoxy-8-methylquinazolin-4-yloxy]-13-methyl-2,14-dioxo-3,13-diazatricyclo[13.3.0.0^4,6]octadec-7-ene-4-carbonyl](cyclopropyl)sulfonamide], in assay [1], the EC50 was 0.5 to 199 nM. The compound further came in with a Ki in assay [2] of 0.1 to 4.9 nM.
As to `COc1ccc2c(O[C@H]3CC4C(=O)N(C)CCCC/C=C\[C@@H]5C[C@@]5(C(=O)NS(=O)(=O)C5CC5)NC(=O)[C@@H]4C3)nc(-c3ccc(F)cc3)nc2c1C` (some centres unmarked) [Compound 154], the 50% effective concentration (EC50) in assay [1] lay within 0.5 to 199 nM. In assay [2], this compound showed a Ki of 0.1 to 4.9 nM.
Take `COc1ccc2c(O[C@@H]3C[C@H]4C(=O)N[C@]5(C(=O)NS(=O)(=O)C6CC6)C[C@H]5/C=C\CCCCN(C)C(=O)[C@@H]4C3)nc(-c3cccc(F)c3)nc2c1C` [Compound 160, Cyclopropanesulfonic acid {17-[2-(3-fluoro-phenyl)-7-methoxy-8-methyl-quinazolin-4-yloxy]-13-methyl-2,14-dioxo-3,13-diaza-tricyclo[13.3.0.0*4,6*]octadec-7-ene-4-carbonyl}-amide]: the EC50 in assay [1] was in the range of 0.5 to 199 nM. Besides, in assay [2], the Ki lay within 0.1 to 4.9 nM.
Take `COc1ccc2c(O[C@@H]3C[C@H]4C(=O)N[C@]5(C(=O)NS(=O)(=O)C6(C)CC6)C[C@H]5/C=C\CCCCN(C)C(=O)[C@@H]4C3)nc(-c3cccc(F)c3)nc2c1C` [Compound 161, 1-Methyl-cyclopropanesulfonic acid {17-[2-(3-fluoro-phenyl)-7-methoxy-8-methyl-quinazolin-4-yloxy]-13-methyl-2,14-dioxo-3,13-diazatricyclo[13.3.0.0*4,6*]octadec-7-ene-4-carbonyl}-amide]: in assay [1], the EC50 was in the range of 0.5 to 199 nM. The Ki in assay [2] is 0.1 to 4.9 nM.
For `COc1ccc2c(O[C@@H]3C[C@H]4C(=O)N[C@]5(C(=O)NS(=O)(=O)C(C)C)C[C@H]5/C=C\CCCCN(C)C(=O)[C@@H]4C3)nc(-c3cccc(F)c3)nc2c1C` [Compound 162, Propane-2-sulfonic acid {17-[2-(3-fluoro-phenyl)-7-methoxy-8-methyl-quinazolin-4-yloxy]-13-methyl-2,14-dioxo-3,13-diazatricyclo[13.3.0.0*4,6*]octadec-7-ene-4-carbonyl}-amide], the EC50 in assay [1] fell in the range of 200 to 990 nM. Also, the Ki in assay [2] was 0.1 to 4.9 nM.

(Values after patent US7659245B2, “Macrocylic inhibitors of hepatitis C virus” (Tibotec Pharmaceuticals Ltd, priority 2005, dated 2010).)
